{"source": "patent US20170306322A1", "about": "“METHODS AND MATERIALS FOR IDENTIFYING COMPOUNDS PROMOTING TRA[…]-THROUGH OF NONSENSE MUTATIONS” (Evolva SA, priority 2013, published 2017)", "key": {"[1]": {"system": "APC premature stop codon C1450X", "test": "Yeast APC premature stop codon URA3/ADE2 reporter spot test on plates", "type": "cell-based", "settings": "20 ug/ml G418, spot test, 3-5 days at 30° C., Pgal1-APCmut-URA3/ADE2 strain", "source_text": "A nucleic acid sequence containing a nonsense mutation was introduced into a yeast expression construct under the transcriptional control of a promoter e.g., an inducible promoter such as a galactose inducible promoter. The nucleic acid sequence containing the nonsense mutation was fused to a first marker gene such as URA3 and/or ADE2 (or other gene that results in an auxotroph if the gene is not transcribed and translated). The plasmid was integrated into an intergenic region in the genome of a modified yeast strain harboring deletion of ura3 and/or ade2 using conventional LiAc yeast transformation methods. Integrants were selected on media plates containing the antibiotic Hygromycin B or lacking histidine selecting for the marker present on the expression plasmid. Integrated strains were incubated with test compounds and plated on relevant growth media. Suitable test compounds include, for example, libraries of small molecules or expression libraries. […] Production of URA3 allowed the yeast cells to grow and form colonies on media lacking uracil after 2-4 days incubation at 30° C. Production of ADE2 conferred a white coloration of the yeast colonies and allowed the yeast cells to grow and form colonies on media plates lacking adenine after 2-4 days incubation at 30° C. […]\nNext, the yeast strains were tested for read-through of the stop codon in the presence of the aminoglycoside G418. […]"}, "[2]": {"system": "APC premature stop codon luciferase reporter", "test": "Dual Luciferase Assay, yeast APC premature stop codon Fluc reporter", "type": "cell-based", "settings": "haploid and diploid strains (EFSC2740), compared to vehicle only (DMSO), triplicate", "procedure": "To assess functionality of the Fluc reporter system, a luciferase activity protocol for the Dual Luciferase® Assay kit (Promega) was optimized to be able to test yeast strains in 96-well format. A representative experiment is outlined here. The yeast were incubated for 30° C. overnight. The luciferase assay was performed according to manufacturer's recommended protocol. Briefly, yeast cells were resuspended in SCgal culture media and measured at A600. A 10 uL sample was transferred to a white-opaque-bottom 96-well plate, mixed with 50 uL of passive lysis buffer and incubated at room-temperature for 20-30 minutes with gentle shaking. Next, 50 uL of luciferase assay reagent II and 50 uL of Stop & Glo® reagent were added. The plate was read in a plate reader using a dual luciferase program. The remaining yeast culture was maintained at 30° C. and the luciferase assays was performed daily.\nThe results of the above Dual Luciferase® Assay experiment are shown in FIG. 4 (samples were tested in triplicate and data was analyzed by GraphPad® with error bars showing mean with 95% confidence interval). Here, 3 different integration sites for the Fluc reporter were analyzed both in a haploid assay strain and in a diploid setting in the presence of aminoglycosides G418 and paromomycin. […]"}, "[3]": {"system": "native stop codons in human genes (V-ATPase, Mdm2, ArhGAP1, DAT and PKCb, and striatin)", "test": "Yeast URA3 reporter spot test with native stop codons of human genes", "type": "cell-based", "source_text": "In a similar set-up, read-through of 6 native stop codons in human genes (V-ATPase, Mdm2, ArhGAP1, DAT and PKCb, and striatin) was examined in front of the URA3 reporter system. […] A representative spot-test analysis is shown in FIG. 3B, where a strain containing the native stop codon of the human striatin gene was compared with the strain containing the APC premature stop codon mutant."}, "[4]": {"system": "P53 STOP (TAA198), P53 STOP (TAG221), P53 STOP (TGA196)", "test": "Yeast p53 stop codon URA3 reporter suppression on SCgal-ura plates", "type": "cell-based", "procedure": "In addition to the APC stop-codon assay, other oncology targets including p53 were analyzed. Here, yeast strains were engineered with PGAL1-P53 STOP (TAA198)-URA3 (EFSC2231 and EFSC2233), PGAL1-P53 STOP (TAG221)-URA3 (EFSC2186 and EFSC2200) and PGAL1-P53 STOP (TGA196)-URA3 (EFSC2232 and EFSC2201) reporter integrated at the PRP5 locus. The strains were tested for suppression with G418 on SCgal-ura plates supplemented with increasing G418 concentrations."}, "[5]": {"system": "premature stop codon in APC", "test": "Liquid suppression test, strain EFSC2686, APC premature stop codon URA3 reporter", "type": "cell-based, yeast", "procedure": "Liquid suppression tests were also conducted with a different aminoglycoside, paromomycin. Read-through of the premature stop codon in APC was also observed after liquid cultivation of the strain in the presence of increasing concentrations of the aminoglycoside paromomycin. Here, strain EFSC2686 was grown in SCgal-ura media in the presence of increasing amounts of drug (0-500 uM) and growth rate was monitored on a daily basis. The presence of ≧250 uM paromomycin supports growth in SCgal media lacking uracil after 4 days incubation (see FIG. 3C)."}}, "note": "Entries after “also recorded” stand apart in the source; their conditions may differ.", "data": [{"compound": "CN[C@@H]1[C@@H](O)[C@@H](O[C@@H]2[C@@H](O)[C@H](O[C@H]3O[C@H]([C@@H](C)O)[C@@H](O)[C@H](O)[C@H]3N)[C@@H](N)C[C@H]2N)OC[C@]1(C)O", "note": "[G418]", "values": [{"measurement": "read-through of the APC premature stop codon (growth on SCgal-ura plates)", "setting": "[1]", "value": "allows translation read-through of the APC gene; also recorded: triggered read-through of the stop codon"}, {"measurement": "Firefly luciferase activity", "setting": "[2]", "value": "able to induce luciferase activity; also recorded: robust and significant Firefly luciferase activity"}, {"measurement": "selectivity of suppression, premature versus native stop codons", "setting": "[3]; 20 ug/ml G418, APC mutant versus 6 native stop codons", "value": "selective for premature stop codons"}, {"measurement": "read-through of native stop codons (growth on SCgal-uracil)", "setting": "[3]; SCgal-uracil + 20 ug/ml G418, 6 native stop codons", "value": "no detectable read-through of stop codon was observed"}, {"measurement": "order of suppression response by stop codon", "setting": "[4]; G418, SCgal-ura plates", "value": "TGA>TAG>TAA"}, {"measurement": "expression of Ura3p, growth on SCgal-ura3 plates", "setting": "[4]; increasing G418 concentrations, TAA198, TAG221 and TGA196 strains, all cases", "value": "able to trigger expression of Ura3p"}]}, {"compound": "NC[C@@H]1O[C@H](O[C@H]2[C@@H](O)[C@H](O[C@@H]3[C@@H](O)[C@H](N)C[C@H](N)[C@H]3O[C@H]3O[C@H](CO)[C@@H](O)[C@H](O)[C@H]3N)O[C@@H]2CO)[C@H](N)[C@@H](O)[C@@H]1O", "note": "[paromomycin]", "values": [{"measurement": "Firefly luciferase activity", "setting": "[2]", "value": "able to induce luciferase activity"}, {"measurement": "suppression of the APC stop codon, production of URA3 protein", "setting": "[5]; liquid cultivation, FIG. 3C", "value": "leads to suppression of the APC stop codon and production of URA3 protein"}, {"measurement": "paromomycin concentration that supports growth in SCgal media lacking uracil", "setting": "[5]; strain EFSC2686, 0-500 uM tested, after 4 days incubation", "value": "≥ 250", "unit": "µM"}]}]}
